Measured values: article PMC12724200 (mSphere, 2025)
Values after ≈ are worked out from the molar mass of the structure shown. Like-named read-outs stand apart in the source and are kept apart here.

What was measured:
Staphylococcus aureus = experiment: microbe, parasite or virus in culture; assay type: cell-based
M. tuberculosis H37Rv = experiment: microbe, parasite or virus in culture; assay type: cell-based, Mycobacterium tuberculosis
Escherichia coli DH5α = experiment: microbe, parasite or virus in culture; assay type: cell-based
M. smegmatis mc^2 155 = experiment: microbe, parasite or virus in culture; assay type: cell-based, Mycobacterium smegmatis
M. bovis BCG Tokyo 172 [1] = experiment: microbe, parasite or virus in culture; assay type: cell-based, Mycobacterium bovis BCG
THP-1 = conditions: human
M. bovis = experiment: microbe, parasite or virus in culture; assay type: cell-based, Mycobacterium bovis
A549 = conditions: human
OCT313-resistant BCG = experiment: microbe, parasite or virus in culture; assay type: cell-based, Mycobacterium bovis BCG
M. avium 104 = experiment: microbe, parasite or virus in culture; assay type: cell-based, Mycobacterium avium
MRC-5 = conditions: human
[2] = target: recombinant wild-type M. bovis BCG PTA (Mycobacterium bovis, UniProt A0A679LAX5); experiment: biochemical; assay type: biochemical
Sequence of recombinant wild-type M. bovis BCG PTA (A0A679LAX5 1-690): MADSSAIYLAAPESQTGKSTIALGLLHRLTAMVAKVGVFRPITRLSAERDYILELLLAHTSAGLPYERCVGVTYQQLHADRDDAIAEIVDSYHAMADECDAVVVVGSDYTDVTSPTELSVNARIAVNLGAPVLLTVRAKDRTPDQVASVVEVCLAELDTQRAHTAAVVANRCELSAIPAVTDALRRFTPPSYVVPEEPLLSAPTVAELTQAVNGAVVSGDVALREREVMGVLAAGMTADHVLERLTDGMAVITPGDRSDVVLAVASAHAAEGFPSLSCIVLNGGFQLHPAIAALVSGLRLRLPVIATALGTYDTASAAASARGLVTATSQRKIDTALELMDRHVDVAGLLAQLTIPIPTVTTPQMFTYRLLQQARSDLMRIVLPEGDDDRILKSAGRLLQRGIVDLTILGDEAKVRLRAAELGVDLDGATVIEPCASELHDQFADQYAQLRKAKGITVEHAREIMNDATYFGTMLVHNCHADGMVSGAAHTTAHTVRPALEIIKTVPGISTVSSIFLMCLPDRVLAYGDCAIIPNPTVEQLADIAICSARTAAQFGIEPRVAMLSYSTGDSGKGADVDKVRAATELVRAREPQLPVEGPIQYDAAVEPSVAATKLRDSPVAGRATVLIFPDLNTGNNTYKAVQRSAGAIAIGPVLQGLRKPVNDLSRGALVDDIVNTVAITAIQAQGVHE

M. bovis BCG Tokyo 172 [3] = assay type: cell-based, Mycobacterium bovis BCG
L. mesenteroides PTA = L. mesenteroides PTA (Leuconostoc mesenteroides, UniProt Q03W64); assay type: biochemical
Sequence of L. mesenteroides PTA (Q03W64 1-326): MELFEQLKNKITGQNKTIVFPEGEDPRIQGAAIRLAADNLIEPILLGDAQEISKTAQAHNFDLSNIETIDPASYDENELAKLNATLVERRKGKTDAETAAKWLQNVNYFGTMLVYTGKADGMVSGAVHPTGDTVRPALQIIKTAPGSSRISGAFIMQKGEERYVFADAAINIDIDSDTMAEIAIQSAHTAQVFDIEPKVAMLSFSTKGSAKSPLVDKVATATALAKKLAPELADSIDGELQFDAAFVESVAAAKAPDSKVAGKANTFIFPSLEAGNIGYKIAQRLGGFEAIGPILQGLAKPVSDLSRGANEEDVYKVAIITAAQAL

[4] = test system: OCT313-resistant BCG strains OCTR_3 and OCTR_4; assay type: cell-based, Mycobacterium bovis BCG
[5] = Mycobacterium tuberculosis, H37RV
[6] = Mycobacterium tuberculosis, H37RV, 336 h
[7] = Mycolicibacterium smegmatis, MC^2155, 72 h
[8] = Mycobacterium tuberculosis variant bovis BCG, BCG, 336 h
[9] = Mycobacterium tuberculosis variant bovis, 336 h
[10] = Mycobacterium avium, 104, 168 h

Compound	MIC (Staphylococcus aureus; Staphylococcus aureus) [µg/mL]	MIC (M. tuberculosis H37Rv; [5]) [µg/mL]	MIC (M. tuberculosis H37Rv; [6]) [µg/mL]	MIC (Escherichia coli DH5α; Escherichia coli) [µg/mL]	MIC (M. smegmatis mc^2 155; [7]) [µg/mL]	MIC (M. bovis BCG Tokyo 172 [1]; [8]) [µg/mL]	85% survival conc. (THP-1)	LC50/MIC (THP-1)	MIC (M. bovis; [9]) [µg/mL]	85% survival conc. (A549)	LC50/MIC (A549)	MIC (OCT313-resistant BCG; [8]) [µg/mL]	MIC (M. avium 104; [10]) [µg/mL]	85% survival conc. (MRC-5)	LC50/MIC (MRC-5)	Antibacterial activity in Wayne dormancy model (M. bovis BCG Tokyo 172 [3])	also measured
CC[C@@H](CO)NCCN[C@@H](CC)CO [EB, ethambutol]	> 100	2.5 (≈ 12.2 µM)	2.5 (≈ 12.2 µM)	> 100	12.5 (≈ 61.2 µM)	3 (≈ 14.7 µM)	500 µg/mL	916	0.78 (≈ 3.82 µM)	1,000 μg/mL	1,434	3 (≈ 14.7 µM)	1.6 (≈ 7.83 µM)	250 µg/mL	111	–	–
CC(=O)N[C@@H]1[C@@H](O)[C@H](O)[C@@H](CO)O[C@@H]1O [GlcNAc, N-acetyl-D-glucosamine]	–	–	–	–	–	–	–	–	–	–	–	–	–	–	–	–	MIC (Staphylococcus aureus): >1,000 μg/mL; MIC (M. tuberculosis H37Rv): >1,000 μg/mL; MIC (Escherichia coli DH5α): >1,000 μg/mL; MIC (M. smegmatis mc^2 155): >1,000 μg/mL; MIC (M. bovis BCG Tokyo 172 [1]): >1,000 μg/mL; Inhibition of PTA enzyme activity (in words) [2]: not sufficient to inhibit enzyme activity; MIC (M. bovis): >1,000 μg/mL; MIC (OCT313-resistant BCG): >1,000 μg/mL; MIC (M. avium 104): >1,000 μg/mL
NNC(=O)c1ccncc1 [INH, isoniazid]	> 100	0.04 (≈ 0.292 µM)	0.04 (≈ 0.292 µM)	> 100	3.13 (≈ 22.8 µM)	0.04 (≈ 0.292 µM)	100 µg/mL	53,613	0.04 (≈ 0.292 µM)	1,000 μg/mL	77,277	0.04 (≈ 0.292 µM)	1.56 (≈ 11.4 µM)	250 µg/mL	7,325	showed reduced activity	–
Cc1ncc([N+](=O)[O-])n1CCO [MTZ, metronidazole]	–	–	–	–	–	–	–	–	–	–	–	–	–	–	–	showed antibacterial activity	–
CCN1C(=O)C=CC1=O [NEM, N-ethylmaleimide]	–	–	–	–	–	–	–	–	–	–	–	–	–	–	–	–	IC50 (L. mesenteroides PTA): 50.9 µM; IC50 [2]: 14.5 µM
CC(=O)N[C@@H]1[C@@H](O)[C@H](O)[C@@H](CO)O[C@H]1SC(=S)N(C)C [OCT313, 2-acetamido-2-deoxy-β-D-glucopyranosyl N,N-dimethyldithiocarbamate]	> 100	25 (≈ 77.1 µM)	25 (≈ 77.1 µM)	> 100	> 100	12.5 (≈ 38.5 µM)	1,250 μg/mL	356	31.3 (≈ 96.5 µM)	500 µg/mL	188	> 200	> 100	2,500 μg/mL	242	susceptible to OCT313 in a dose-dependent manner	IC50 (L. mesenteroides PTA): > 1000 µM; IC50 [2]: 2.79 µM; Inhibition pattern (Lineweaver-Burk plots) [2]: mixed inhibition; Change of 50% lethal concentration (LD50) by sugar derivatization (THP-1): 27 fold; Change of 50% lethal concentration (LD50) by sugar derivatization (A549): 196 fold; MIC (OCT313-resistant BCG; Mycobacterium tuberculosis variant bovis BCG, BCG): > 100 µg/mL; Change of 50% lethal concentration (LD50) by sugar derivatization (MRC-5): 550 fold
CO[C@H]1/C=C/O[C@@]2(C)Oc3c(C)c(O)c4c(O)c(c(/C=N/N5CCN(C)CC5)c(O)c4c3C2=O)NC(=O)/C(C)=C\C=C\[C@H](C)[C@H](O)[C@@H](C)[C@@H](O)[C@@H](C)[C@H](OC(C)=O)[C@@H]1C [RFP, rifampicin]	0.02 (≈ 0.0243 µM)	0.004 (≈ 0.00486 µM)	0.004 (≈ 0.00486 µM)	12.5 (≈ 15.2 µM)	1.56 (≈ 1.9 µM)	0.01 (≈ 0.0122 µM)	10 µg/mL	16,256	0.016 (≈ 0.0194 µM)	10 µg/mL	44,510	0.01 (≈ 0.0122 µM)	0.25 (≈ 0.304 µM)	10 µg/mL	16,250	–	–
[H]/N=C(/N)N[C@H]1[C@H](O)[C@@H](O)[C@H](O[C@@H]2O[C@@H](C)[C@](O)(C=O)[C@H]2O[C@@H]2O[C@@H](CO)[C@H](O)[C@@H](O)[C@@H]2NC)[C@@H](N/C(N)=N\[H])[C@@H]1O [SM, streptomycin]	6.25 (≈ 10.7 µM)	0.4 (≈ 0.688 µM)	0.39 (≈ 0.671 µM)	25 (≈ 43 µM)	0.39 (≈ 0.671 µM)	0.2 (≈ 0.344 µM)	100 µg/mL	17,908	0.2 (≈ 0.344 µM)	5,000 μg/mL	31,350	0.2 (≈ 0.344 µM)	3.13 (≈ 5.38 µM)	1,000 μg/mL	4,175	–	–
Dimethyldithiocarbamate [DMDC]	–	–	–	–	–	–	–	–	–	–	–	–	–	–	–	–	MIC (Staphylococcus aureus): 25 µg/mL; MIC (M. tuberculosis H37Rv): 1.56 µg/mL; MIC (Escherichia coli DH5α): 200 µg/mL; MIC (M. smegmatis mc^2 155): >100 µg/mL; MIC (M. bovis BCG Tokyo 172 [1]): 3.13 µg/mL; Inhibition of PTA enzyme activity (in words) [2]: did not inhibit PTA; MIC (M. bovis): 3.13 µg/mL; MIC (OCT313-resistant BCG): 12.5 µg/mL; Antibacterial activity in Wayne dormancy model [4]: similar
